We go through one molecule from the NIST ThermoML archive (doi:10.1021/acs.jced.7b00065).

± gives the expanded uncertainty stated by the source.

For series [1] the following is noted: Crystal; DTA.
Series [2] is described as follows: Molar enthalpy of transition or fusion. The following applies: Crystal; DSC.

On to `Cn1c(=O)c2[nH]cnc2n(C)c1=O` [3,7-dihydro-1,3-dimethyl-1H-purine-2,6-dione], for which the Normal melting temperature in series [1] is 272.03 ± 1.1 °C. Further, in series [2], the “Molar enthalpy of transition or fusion” value turned out to be 6.91 ± 0.43 kcal/mol.
